Measured values taken from patent US20050182119A1, “Substituted pyrazoline derivatives” (priority 2004, published 2005).

How the values were obtained:
[1] = system: NC59 human colon tumor cell line; assay: XTT cell viability (antitumoral activity), NC59; format: cell-based; settings: incubation time (4 h or 60 h) not stated, read-out: CI50 (μM) colon NC59
Protocol: (§1) The antitumor activity of inventive compounds was evaluated measuring cell metabolic capacity (viability), using the XTT kit and following the recommendations of the manufacturer (Roche Diagnostics). The assays were carried out a minimum of five times, with controls containing unexposed cells, cells with vehicle, or media plus compound. Cells were seeded into 96-well plates in 100 μl of media and incubated for 24 h. Afterwards, the inventive compounds were added at different combination of concentrations (from 1 μM to 80 μM) for 4 h (short time XTT) or 60 h (long time XTT). At the end of the incubation period, 50 μl of a mixture containing XTT and electron coupling reagent to each well were added. After 4 h of incubation at 37° C. the absorbance at 490 nm was noted. The growth inhibitory activity of each compound, was obtained subtracting the absorbance of the blanks and expressed as percentage of cell growth inhibition, as compared with untreated controls. The inhibitory concentration 50 (IC50) was determined from the dose-response curves of compound concentration versus percentage of cell viability with the Hill sigmoidal equation (three parameters), using Sigmaplot 5.0 software.

[2] = system: HCA7 human colon tumor cell line; assay: XTT cell viability (antitumoral activity), HCA7; format: cell-based; settings: HCA-7, incubation time (4 h or 60 h) not stated, read-out: CI50 (μM) colon HCA7
Protocol: as §1

[3] = system: HT29 human colon tumor cell line; assay: XTT cell viability (antitumoral activity), HT29; format: cell-based; settings: HT-29, incubation time (4 h or 60 h) not stated, read-out: CI50 (μM) colon HT29
Protocol: as §1

[4] = system: PC3 human prostata tumor cell line; assay: XTT cell viability (antitumoral activity), PC3; format: cell-based; settings: incubation time (4 h or 60 h) not stated, read-out: CI50 (μM) prostata PC3
Protocol: as §1

COX-1 = COX-1 (Homo sapiens, UniProt P23219); assay: Inhibition of enzyme COX-1; format: biochemical
Sequence of COX-1 (P23219 24-599): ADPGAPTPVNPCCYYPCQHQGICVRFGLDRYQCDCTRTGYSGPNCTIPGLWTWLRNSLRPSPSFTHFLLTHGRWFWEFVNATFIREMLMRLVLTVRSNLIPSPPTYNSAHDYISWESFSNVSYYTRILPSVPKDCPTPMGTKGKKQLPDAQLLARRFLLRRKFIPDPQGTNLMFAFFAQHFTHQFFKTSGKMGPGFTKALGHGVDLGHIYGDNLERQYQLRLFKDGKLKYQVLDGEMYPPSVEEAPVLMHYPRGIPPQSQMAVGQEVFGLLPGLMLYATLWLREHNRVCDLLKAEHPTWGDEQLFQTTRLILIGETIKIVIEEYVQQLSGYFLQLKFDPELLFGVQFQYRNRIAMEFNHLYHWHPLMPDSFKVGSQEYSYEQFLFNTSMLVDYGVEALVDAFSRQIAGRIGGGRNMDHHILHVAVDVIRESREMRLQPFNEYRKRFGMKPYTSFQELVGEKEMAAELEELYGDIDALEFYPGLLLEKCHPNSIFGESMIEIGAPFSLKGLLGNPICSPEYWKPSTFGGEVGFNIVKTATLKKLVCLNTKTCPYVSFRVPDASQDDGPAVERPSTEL

COX-2 = target: T1, COX-2 (Homo sapiens, UniProt P35354); assay: Inhibition of enzyme COX-2; format: biochemical
T1 sequence (P35354 18-604): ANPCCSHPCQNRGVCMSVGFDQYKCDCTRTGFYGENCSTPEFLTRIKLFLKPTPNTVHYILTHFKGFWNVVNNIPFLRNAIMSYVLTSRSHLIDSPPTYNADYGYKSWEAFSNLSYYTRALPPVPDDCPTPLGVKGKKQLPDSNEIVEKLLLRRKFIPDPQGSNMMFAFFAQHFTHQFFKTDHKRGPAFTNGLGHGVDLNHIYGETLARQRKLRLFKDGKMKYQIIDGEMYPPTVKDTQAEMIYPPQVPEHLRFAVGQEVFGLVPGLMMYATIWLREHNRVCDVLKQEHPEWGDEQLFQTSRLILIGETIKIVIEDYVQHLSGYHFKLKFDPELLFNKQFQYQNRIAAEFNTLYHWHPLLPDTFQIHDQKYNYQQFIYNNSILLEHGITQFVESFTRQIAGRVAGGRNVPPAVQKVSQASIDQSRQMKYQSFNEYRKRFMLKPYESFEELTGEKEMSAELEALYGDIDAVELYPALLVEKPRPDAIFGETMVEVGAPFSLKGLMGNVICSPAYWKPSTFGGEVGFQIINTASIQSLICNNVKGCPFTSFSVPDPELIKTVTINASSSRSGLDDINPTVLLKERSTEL

IC50 [1]	IC50 [2]	IC50 [3]	IC50 [4]	inhibiting activity of enzyme COX-1 (COX-1)	inhibiting activity of enzyme COX-2 (COX-2)	melting point	SMILES
18.2 µM	26.5 µM	21.5 µM	30.6 µM	–	–	–	Cc1ccc(-c2cc(C(F)(F)F)nn2-c2ccc(S(N)(=O)=O)cc2)cc1 [Celecoxib, reference compound]
16.3 µM	10.5 µM	14.9 µM	12.3 µM	do not display any inhibiting activity	do not display any inhibiting activity	200 to 202 °C	Cc1ccc(C)c(C2CC(C(F)(F)F)=NN2c2ccc(S(N)(=O)=O)cc2)c1 (stereo not drawn) [Example 1, 4-[5-(2,5-dimethyl-phenyl)-3-trifluoromethyl-4,5-dihydro-pyrazol-1-yl]-benzenesulfonamide]
–	–	–	10.6 µM	do not display any inhibiting activity	do not display any inhibiting activity	195 to 197 °C	NS(=O)(=O)c1ccc(N2N=C(C(F)(F)F)CC2c2cc(C(F)(F)F)cc(C(F)(F)F)c2)cc1 (stereo not drawn) [Example 2, 4-[5-(3,5-bis-trifluoromethyl-phenyl)-3-trifluoromethyl-4,5-dihydro-pyrazol-1-yl]-benzenesulfonamide]
